Assay: Precipitate formation from sodium deoxycholate solutions after 1 week of storage (visual inspection)
Assay type: physicochemical
Settings: 1 week storage
Experimental: Solutions of sodium deoxycholate at different concentration were evaluated for precipitate formation after 1 week of storage. […] By visual inspection, the amount of precipitation can be rated as tabulated below.

## C[C@H](CCC(=O)[O-])[C@H]1CCC2C3CC[C@@H]4C[C@H](O)CC[C@]4(C)C3C[C@H](O)[C@@]21C.[Na+] (stereo partly drawn) [Sodium Deoxycholate, sodium (4R)-4-((3R,5R,10S,12S,13R,17R)-3,12-dihydroxy-10,13-dimethylhexadecahydro-1H-cyclopenta[a]phenanthren-17-yl)pentanoate]
0.5% w/v
  Precipitation, Comment: Significant amounts of precipitate visible to the naked eye
1.0% w/v
  Precipitation, Comment: Significant amounts of precipitate visible to the naked eye
